From the supplement of paper PMC11208160

Assay: recombinant UMI read abundance after kanamycin selection (control-corrected) (log10(CPM+1)); higher = more efficient recombination; extreme values may be limits of the assay; sequences stand for … in AGTGCAGAGAAAATCGGCCAGTTTTCTCTGCCTGCAGTCCGCATGCCGTGGGACCCCTTGGGTTCTAACCTGTTGCCTAGATTTATGCAGCGGACTGCCTTTCTCCCAAAGTGATAAACCGG…AGGTTGGTTTCACT; site = the 11-nt donor
Summary of the method: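 Two replicates each of selected and unselected plating were used in this pooled Escherichia coli screen of donor and donor-binding-loop pairs for the IS621 bridge recombinase. Selection was with IPTG (0.07 mM) and kanamycin. Counts of recombinant UMIs, amplified across the donor–target junction, were converted to CPM, averaged, scaled by control-derived factors and reported as log10(CPM+1).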
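Note: IS621 bridge recombinase in Escherichia coli cells against a fixed T5 target plasmid.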

## CCTAACACATGGACCGGTTTTCCCGGTAATCCGTATTTGGC (site CCTAAAACTGC)
  recombinant UMI read abundance (log10): 0

## CCTAACACATGGACCGGTTTTCCCGGTAATCCGTATTTGGC (site CCTAACACTGC)
  recombinant UMI read abundance (log10): 0

## CCTAACACATGGACCGGTTTTCCCGGTAATCCGTATTTGGC (site CCTAAGACTGC)
  recombinant UMI read abundance (log10): 0

## CCTAACACATGGACCGGTTTTCCCGGTAATCCGTATTTGGC (site CCTAATACTGC)
  recombinant UMI read abundance (log10): 0

## CCTAACGCATGGACCGGTTTTCCCGGTAATCCGTATTTGAT (site CCTAAAGCTAT)
  recombinant UMI read abundance (log10): 0

## CCTAACGCATGGACCGGTTTTCCCGGTAATCCGTATTTGAT (site CCTAACGCTAT)
  recombinant UMI read abundance (log10): 0

## CCTAACGCATGGACCGGTTTTCCCGGTAATCCGTATTTGAT (site CCTAAGGCTAT)
  recombinant UMI read abundance (log10): 0

## CCTAACGCATGGACCGGTTTTCCCGGTAATCCGTATTTGAT (site CCTAATGCTAT)
  recombinant UMI read abundance (log10): 0

## CCTAATCCATGGACCGGTTTTCCCGGTAATCCGTATTTGGC (site CCTAATACTGC)
  recombinant UMI read abundance (log10): 0

## CCTAATCCATGGACCGGTTTTCCCGGTAATCCGTATTTGGC (site CCTAATCCTGC)
  recombinant UMI read abundance (log10): 0

## CCTAATCCATGGACCGGTTTTCCCGGTAATCCGTATTTGGC (site CCTAATGCTGC)
  recombinant UMI read abundance (log10): 0

## CCTAATCCATGGACCGGTTTTCCCGGTAATCCGTATTTGGC (site CCTAATTCTGC)
  recombinant UMI read abundance (log10): 0

## CCTACAACATGGACCGGTTTTCCCGGTAATCCGTATTTGAA (site CCTACAACTTT)
  recombinant UMI read abundance (log10): 0.0165

## CCTACTACATGGACCGGTTTTCCCGGTAATCCGTATTTGGC (site CCTAATACTGC)
  recombinant UMI read abundance (log10): 0

## CCTACTACATGGACCGGTTTTCCCGGTAATCCGTATTTGGC (site CCTACTACTGC)
  recombinant UMI read abundance (log10): 0

## CCTACTACATGGACCGGTTTTCCCGGTAATCCGTATTTGGC (site CCTAGTACTGC)
  recombinant UMI read abundance (log10): 0

## CCTACTACATGGACCGGTTTTCCCGGTAATCCGTATTTGGC (site CCTATTACTGC)
  recombinant UMI read abundance (log10): 0

## CCTACTTCATGGACCGGTTTTCCCGGTAATCCGTATTTGAT (site CCTACTTCTAT)
  recombinant UMI read abundance (log10): 0

## CCTATACCATGGACCGGTTTTCCCGGTAATCCGTATTTGCG (site CCTATACCTCG)
  recombinant UMI read abundance (log10): 0.0152

## CCTATAGCATGGACCGGTTTTCCCGGTAATCCGTATTTGAT (site CCTAAAGCTAT)
  recombinant UMI read abundance (log10): 0

## CCTATAGCATGGACCGGTTTTCCCGGTAATCCGTATTTGAT (site CCTACAGCTAT)
  recombinant UMI read abundance (log10): 0

## CCTATAGCATGGACCGGTTTTCCCGGTAATCCGTATTTGAT (site CCTAGAGCTAT)
  recombinant UMI read abundance (log10): 0.0174

## CCTATAGCATGGACCGGTTTTCCCGGTAATCCGTATTTGAT (site CCTATAGCTAT)
  recombinant UMI read abundance (log10): 0.00747

## CCTATTACATGGACCGGTTTTCCCGGTAATCCGTATTTGGC (site CCTAATACTGC)
  recombinant UMI read abundance (log10): 0

## CCTATTACATGGACCGGTTTTCCCGGTAATCCGTATTTGGC (site CCTACTACTGC)
  recombinant UMI read abundance (log10): 0

## CCTATTACATGGACCGGTTTTCCCGGTAATCCGTATTTGGC (site CCTAGTACTGC)
  recombinant UMI read abundance (log10): 0

## CCTATTACATGGACCGGTTTTCCCGGTAATCCGTATTTGGC (site CCTATTACTGC)
  recombinant UMI read abundance (log10): 0

## CCTATTTCATGGACCGGTTTTCCCGGTAATCCGTATTTGGC (site CCTATTTCTGC)
  recombinant UMI read abundance (log10): 0

## CCTATTTCATGGACCGGTTTTCCCGGTAATCCGTATTTGTC (site CCTATTTCTGA)
  recombinant UMI read abundance (log10): 0

## CCTCCAACATGGACCGGTTTTCCCGGTAATCCGTATTTGTA (site CCTCCAACTTA)
  recombinant UMI read abundance (log10): 0.0158

## CCTCGGACATGGACCGGTTTTCCCGGTAATCCGTATTTGGG (site CCTCGGACTCC)
  recombinant UMI read abundance (log10): 0.0416

## CCTCTAGCATGGACCGGTTTTCCCGGTAATCCGTATTTGTA (site CCTCTAGCTTA)
  recombinant UMI read abundance (log10): 0.352

## CCTGAGACATGGACCGGTTTTCCCGGTAATCCGTATTTGAG (site CCTGAGACTCT)
  recombinant UMI read abundance (log10): 0.00693

## CCTGGAACATGGACCGGTTTTCCCGGTAATCCGTATTTGTT (site CATGGAACTAA)
  recombinant UMI read abundance (log10): 0.0113

## CCTGGAACATGGACCGGTTTTCCCGGTAATCCGTATTTGTT (site CCTGGAACTAA)
  recombinant UMI read abundance (log10): 0.00583

## CCTGGAACATGGACCGGTTTTCCCGGTAATCCGTATTTGTT (site CGTGGAACTAA)
  recombinant UMI read abundance (log10): 0.00754

## CCTGGAACATGGACCGGTTTTCCCGGTAATCCGTATTTGTT (site CTTGGAACTAA)
  recombinant UMI read abundance (log10): 0.00851

## CCTGGTGCATGGACCGGTTTTCCCGGTAATCCGTATTTGAT (site CCAGGTGCTAT)
  recombinant UMI read abundance (log10): 0.00887

## CCTGGTGCATGGACCGGTTTTCCCGGTAATCCGTATTTGAT (site CCCGGTGCTAT)
  recombinant UMI read abundance (log10): 0.00946

## CCTGGTGCATGGACCGGTTTTCCCGGTAATCCGTATTTGAT (site CCGGGTGCTAT)
  recombinant UMI read abundance (log10): 0.00642

## CCTGGTGCATGGACCGGTTTTCCCGGTAATCCGTATTTGAT (site CCTGGTGCTAT)
  recombinant UMI read abundance (log10): 0.494

## CCTGTTCCATGGACCGGTTTTCCCGGTAATCCGTATTTGTC (site CCTGTTCCTGA)
  recombinant UMI read abundance (log10): 0

## CCTGTTTCATGGACCGGTTTTCCCGGTAATCCGTATTTGAC (site CCTGTTTCTGT)
  recombinant UMI read abundance (log10): 0

## CCTTAGCCATGGACCGGTTTTCCCGGTAATCCGTATTTGCC (site CCATAGCCTGG)
  recombinant UMI read abundance (log10): 0

## CCTTAGCCATGGACCGGTTTTCCCGGTAATCCGTATTTGCC (site CCCTAGCCTGG)
  recombinant UMI read abundance (log10): 0

## CCTTAGCCATGGACCGGTTTTCCCGGTAATCCGTATTTGCC (site CCGTAGCCTGG)
  recombinant UMI read abundance (log10): 0

## CCTTAGCCATGGACCGGTTTTCCCGGTAATCCGTATTTGCC (site CCTTAGCCTGG)
  recombinant UMI read abundance (log10): 0

## CCTTCTACATGGACCGGTTTTCCCGGTAATCCGTATTTGAT (site CCTTCTACTAT)
  recombinant UMI read abundance (log10): 0

## CCTTGACCATGGACCGGTTTTCCCGGTAATCCGTATTTGAG (site CCTTGACCTCT)
  recombinant UMI read abundance (log10): 0.0135

## CCTTGAGCATGGACCGGTTTTCCCGGTAATCCGTATTTGTA (site CCTTGAGCTTA)
  recombinant UMI read abundance (log10): 0.013

## CCTTGCACATGGACCGGTTTTCCCGGTAATCCGTATTTGAG (site CCTTGCACTCT)
  recombinant UMI read abundance (log10): 0.0135

## CCTTGTGCATGGACCGGTTTTCCCGGTAATCCGTATTTGGA (site CCTTGTGCTTC)
  recombinant UMI read abundance (log10): 0.0149

## CCTTTACCATGGACCGGTTTTCCCGGTAATCCGTATTTGCC (site AGACCGTCTCT)
  recombinant UMI read abundance (log10): 0.00566

## CCTTTTACATGGACCGGTTTTCCCGGTAATCCGTATTTGCT (site CCATTTACTAG)
  recombinant UMI read abundance (log10): 0

## CCTTTTACATGGACCGGTTTTCCCGGTAATCCGTATTTGCT (site CCCTTTACTAG)
  recombinant UMI read abundance (log10): 0

## CCTTTTACATGGACCGGTTTTCCCGGTAATCCGTATTTGCT (site CCGTTTACTAG)
  recombinant UMI read abundance (log10): 0.00369

## CCTTTTACATGGACCGGTTTTCCCGGTAATCCGTATTTGCT (site CCTTTTACTAG)
  recombinant UMI read abundance (log10): 0

## CGAAATCCATGGACCGGTTTTCCCGGTAATCCGTATTTGCT (site CGAAATCCTAG)
  recombinant UMI read abundance (log10): 0.783

## CGAAATCCATGGACCGGTTTTCCCGGTAATCCGTATTTGCT (site CGGAATCCTAA)
  recombinant UMI read abundance (log10): 0

## CGAAATCCATGGACCGGTTTTCCCGGTAATCCGTATTTGTA (site CGAAATCCTTA)
  recombinant UMI read abundance (log10): 1.11

## CGAAATCCATGGACCGGTTTTCCCGGTAATCCGTATTTGTA (site CGGAATCCTAA)
  recombinant UMI read abundance (log10): 0.00383

## CGAAATCCATGGACCGGTTTTCCCGGTAATCCGTATTTGTT (site CGAAATCCTAA)
  recombinant UMI read abundance (log10): 0.953

## CGAAATCCATGGACCGGTTTTCCCGGTAATCCGTATTTGTT (site CGCAATCCTAA)
  recombinant UMI read abundance (log10): 0

## CGAAATCCATGGACCGGTTTTCCCGGTAATCCGTATTTGTT (site CGGAATCCTAA)
  recombinant UMI read abundance (log10): 0

## CGAAATCCATGGACCGGTTTTCCCGGTAATCCGTATTTGTT (site CGTAATCCTAA)
  recombinant UMI read abundance (log10): 0

## CGAAATTCATGGACCGGTTTTCCCGGTAATCCGTATTTGTT (site CGAAATTCTAA)
  recombinant UMI read abundance (log10): 0.945

## CGAAATTCATGGACCGGTTTTCCCGGTAATCCGTATTTGTT (site CGGAATCCTAA)
  recombinant UMI read abundance (log10): 0

## CGAACACCATGGACCGGTTTTCCCGGTAATCCGTATTTGCT (site CGAACACCTAG)
  recombinant UMI read abundance (log10): 0

## CGAACACCATGGACCGGTTTTCCCGGTAATCCGTATTTGCT (site CGATCATCTAG)
  recombinant UMI read abundance (log10): 0

## CGAACGTCATGGACCGGTTTTCCCGGTAATCCGTATTTGCT (site CGAACGTCTAG)
  recombinant UMI read abundance (log10): 2.87

## CGAACGTCATGGACCGGTTTTCCCGGTAATCCGTATTTGCT (site CGATCATCTAG)
  recombinant UMI read abundance (log10): 0

## CGAAGAGCATGGACCGGTTTTCCCGGTAATCCGTATTTGAC (site CGAAGAGCTGT)
  recombinant UMI read abundance (log10): 2.51

## CGAAGGGCATGGACCGGTTTTCCCGGTAATCCGTATTTGGT (site CGAAGGGCTAC)
  recombinant UMI read abundance (log10): 1.32

## CGAAGTACATGGACCGGTTTTCCCGGTAATCCGTATTTGCG (site CGAAGTACTCG)
  recombinant UMI read abundance (log10): 2.12

## CGAATACCATGGACCGGTTTTCCCGGTAATCCGTATTTGTA (site CGAATACCTTA)
  recombinant UMI read abundance (log10): 0
